According to patent US20130310374A1, “Substituted Imidazoquinoline Derivatives” (PIRAMAL ENTERPRISES LIMITED`, priority 2010, published 2013):

Experiments:
[1] = system: PI3K/mTOR pathway; test: Western blot analysis in A2780 ovarian cancer cell line; format: cell-based; details: A2780 cells treated for 1 hour; FIG. 1A-1E
Method: Protocol for Western Blot Analysis
A2780 ovarian cancer cell line (ATCC) were grown to approximately 70% confluence in 100-mm tissue culture dishes and then treated for 1 hour with […] compounds of Example 2, 3, 5, 16, 19, 55 and 59. Total protein was extracted using cell lysis buffer (NaCl […], NP40 0.67%, Tris-Cl, pH 7.5, 67 mM) containing protease inhibitors and phosphatase inhibitors (Beta-glycerol phosphate 40 mM, DTT 1 mM, NaF 0.4 mM, Sodium-Orthovanadate 0.4 mM) at 4° C. for 1 hour. Cell lysates were then centrifuged at 2×10^4 g for 10 minutes at 4° C., and the protein concentration of the supernatant was quantified using the Bradford's method (BioRad, USA). For SDS-PAGE, 50 μg protein was loaded in SDS-PAGE, transferred to a polyvinylidene difluoride membrane (Bio-Rad, USA) and blocked with 5 mL buffer [5% skim milk and 0.1% Tween] for 1 hour 30 minutes. Membrane were probed with primary antibody (all primary antibodies were from cell signaling with 1:1000 in TBST solution) of respective protein at 4° C. overnight. Peroxidase-labeled anti-rabbit or anti-mouse antibodies (Santacruze, USA) were used as the secondary antibody. Actin and respective whole protein levels were used as the control for protein loading. Protein antigens were detected using Chemiluminescent Substrate (Thermo scientific, USA) and exposed on Kodak station.

[2] = system: hPBMC; test: MTS toxicity assay in parallel to anti-CD3/anti-CD28 cytokine assay; format: cell-based, human; details: anti-CD3/anti-CD28 experiment
Method: (§1) hPBMC stimulation: Peripheral blood was collected from normal healthy volunteers after informed consent. Peripheral blood mononuclear cells (hPBMC) were harvested using Ficoll-Hypaque density gradient centrifugation (1.077 g/mL; Sigma Aldrich). hPBMCs were resuspended in RPMI 1640 culture medium (Gibco BRL, Pasley, UK) containing 10% FCS, 100 U/mL penicillin (Sigma Chemical Co. St Louis, Mo.) and […] streptomycin (Sigma Chemical Co. St Louis, Mo.) at 1.25×10^6 cells/mL of assay medium. 2.5×10^5 hPBMCs were added per well of 96-well plate coated with or without anti-CD3/anti-CD28 mAbs. Simultaneously, 0.025 μM of compounds of the present invention or 0.5% DMSO (vehicle control) were added to appropriate wells. The cells were then incubated for 18 hours at 37° C., 5% CO2 following which supernatants were collected, stored at […] and assayed later for TNF-α, IL-6 and IFN-γ by ELISA (OptiEIA ELISA sets; BD Biosciences). In every experiment, each condition was run in triplicate wells. In all experiments, the toxicity of test compounds was ascertained, in parallel, using the MTS (3-(4,5-dimethylthiazol-2-yl)-5-(3-carboxymethoxyphenyl)-2-(4-sulfonyl)-2H-tetrazolium) assay as described in Am. J. Physiol. Cell Physiol., 2003, 285, C813-C822.

[3] = system: LN18; test: Cytotoxicity propidium iodide assay, LN18; format: cell-based; details: Homo sapiens, LN-18; LN18 (glioblastoma), 48 hours treatment; read-out: IC50 Values in μM, C5b
Method: (§2) The assay was designed as in the reference, Anticancer Drugs, 2002, 13, 1-8, the disclosure of which is incorporated herein by reference for the teaching of the assay.
(§3) Cells from cell lines (ATCC) as mentioned in the table given below were seeded at a density of 3000 cells/well in a white opaque 96-well plate. Following incubation at 37° C./5% CO2 for a period of 18-24 hours, the cells were treated with various concentrations (stock solution was prepared in DMSO and subsequent dilutions were made in media as per ATCC guidelines) of the compounds of the present invention for a period of 48 hours. At the end of treatment, the culture medium was discarded, the cells were washed with 1×PBS and 200 μL of […] propidium iodide was added to each well. The plates were frozen at […] overnight. For analysis, the plates were warmed to RT, allowed to thaw and were read in PoleStar fluorimeter with the fluorescence setting. The percentage of viable cells in the non-treated set of wells was considered to be 100 and the percentage viability following treatment was calculated accordingly. IC50 values were calculated from graphs plotted using these percentages. IC50 values for certain compounds of present invention are depicted in Table 1 and % Inhibition of certain compounds of present invention are depicted in Table 2.

[4] = system: PANC 1; test: Cytotoxicity propidium iodide assay, PANC 1; format: cell-based; details: Homo sapiens; PANC 1 (pancreatic), 48 hours treatment; read-out: IC50 Values in μM, C4a
Method: as §2, §3

[5] = system: MCF7; test: Cytotoxicity propidium iodide assay, MCF7; format: cell-based; details: Homo sapiens; MCF7 (breast), 48 hours treatment; read-out: IC50 Values in μM, C3d
Method in brief: (§4)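 Read-out: propidium iodide fluorescence after freeze-thaw, with untreated wells set to 100% viability and IC50 taken from the plotted percentages. Cells (3000/well) were pre-incubated 18-24 h, then treated 48 h with a range of compound concentrations.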

[6] = system: A2780; test: Cytotoxicity propidium iodide assay, A2780; format: cell-based; details: Homo sapiens; A2780 (ovarian), 48 hours treatment; read-out: IC50 Values in μM, C1a
Method in brief: as §4

[7] = system: IFN-γ; test: Anti-CD3 mAb and anti-CD28 mAb-induced cytokine production assay, IFN-γ; format: cell-based; details: Homo sapiens, hPBMC, anti-CD3/anti-CD28, 18 hours
Method: (§5) Anti-CD3 mAb and Anti-CD28 mAb-Induced Cytokine Production Assay
(§6) Preparation of anti-CD3/anti-CD28 coated plates: 96 well plates were coated with goat anti-mouse IgG, Fc (Millipore) at a concentration of 16.5 μg/mL in coating buffer ([…] NaHCO3, 3.56 g Na2CO3, pH 9.5). Following overnight incubation at 4° C., the plates were washed and then incubated with anti-CD3 (3.5 μg/mL; R&D Systems) and anti-CD28 (35 ng/mL; R&D Systems) cocktail for 3 hours. Subsequently, the plates were washed, and used for hPBMC stimulation.
as §1

[8] = system: TNF-α; test: Anti-CD3 mAb and anti-CD28 mAb-induced cytokine production assay, TNF-α; format: cell-based; details: Homo sapiens, hPBMC, anti-CD3/anti-CD28, 18 hours
Method: as §5, §6, §1

[9] = system: BxPC3; test: Cytotoxicity propidium iodide assay, BxPC3; format: cell-based; details: Homo sapiens, BXPC-3; BxPC3 (pancreatic), 48 hours treatment; read-out: IC50 Values in μM, C4c
Method in brief: as §4

[10] = system: K562; test: Cytotoxicity propidium iodide assay, K562; format: cell-based; details: Homo sapiens; K562 (CML), 48 hours treatment; read-out: IC50 Values in μM, C6a
Method in brief: as §4

Row | SMILES | Akt, S6 and 4EBP1 phosphorylation (Western blot) [1] | % Toxicity at 0.025 μM [2] | IC50 [3] | IC50 [4] | IC50 [5] | IC50 [6] | inhibition at 0.025 µM [7] | inhibition at 0.025 µM [8] | IC50 [9] | IC50 [10]
1 | Cn1c(=O)n(-c2ccc(C(C)(C)C#N)nc2)c2c3cc(-c4cnc5ccccc5c4)ccc3ncc21 [Example 2, 2-Methyl-2-(5-(3-methyl-2-oxo-8-(quinolin-3-yl)-2,3-dihydro-1H-imidazo[4,5-c]quinolin-1-yl)pyridin-2-yl)propanenitrile] | inhibit Akt, S6 and 4EBP1 phosphorylation | 12% | 0.33 µM | 0.1 µM | 0.09 µM | 0.024 µM | 71% | 63% | 0.04 µM | 
2 | Cn1c(=O)n(-c2ccc(C(C)(C)C#N)nc2)c2c3cc(-c4cnc(N)c(C(F)(F)F)c4)ccc3ncc21 [Example 3, 2-(5-(8-(6-Amino-5-(trifluoromethyl)pyridin-3-yl)-3-methyl-2-oxo-2,3-dihydro-1H-imidazo[4,5-c]quinolin-1-yl)pyridin-2-yl)-2-methylpropanenitrile] | inhibit Akt, S6 and 4EBP1 phosphorylation | 24% | 0.144 µM | 0.01 µM | 0.026 µM | < 0.005 µM | 93% | 92% | 0.01 µM | 0.056 µM
3 | CS(=O)(=O)O.Cn1c(=O)n(-c2ccc(C(C)(C)C#N)nc2)c2c3cc(-c4cnc(N)c(C(F)(F)F)c4)ccc3ncc21 [Example 3a, 8-(6-Amino-5-(trifluoromethyl)pyridin-3-yl)-1-(6-(2-cyanopropan-2-yl)pyridin-3-yl)-3-methyl-2-oxo-2,3-dihydro-1H-imidazo[4,5-c]quinolin-5-ium methanesulfonate] | inhibit Akt, S6 and 4EBP1 phosphorylation |  |  |  |  |  |  |  |  | 
4 | CC(C)(C#N)c1ccc(-n2c(=O)n(CC#N)c3cnc4ccc(-c5cnc(N)c(C(F)(F)F)c5)cc4c32)cn1 [Example 16, 2-(5-(8-(6-Amino-5-(trifluoromethyl)pyridin-3-yl)-3-(cyanomethyl)-2-oxo-2,3-dihydro-1H-imidazo[4,5-c]quinolin-1-yl)pyridin-2-yl)-2-methylpropanenitrile] | inhibit Akt, S6 and 4EBP1 phosphorylation | 0% | 0.44 µM | 0.017 µM | 0.03 µM | 0.013 µM | 80% | 81% | 0.008 µM | 0.4 µM
5 | COc1ccc(-n2c(=O)n(C)c3cnc4ccc(-c5cnc(N)c(C(F)(F)F)c5)cc4c32)cn1 [Example 19, 8-(6-Amino-5-(trifluoromethyl)pyridin-3-yl)-1-(6-methoxypyridin-3-yl)-3-methyl-1H-imidazo[4,5-c]quinolin-2(3H)-one] | inhibit Akt, S6 and 4EBP1 phosphorylation | 19% | 0.096 µM | 0.026 µM | 0.054 µM | < 0.01 µM | 87% | 87% | 0.016 µM | 0.056 µM
